Assay results published in the supplement of paper PMC10307832.

What was measured:
Assay in all cases: relative viability (nuclei count vs DMSO), 5 days (fraction); higher = more cells survive
Ibrutinib + Palbociclib = compound: C=CC(=O)N1CCC[C@@H](n2nc(-c3ccc(Oc4ccccc4)cc3)c3c(N)ncnc32)C1 [Ibrutinib] + CC(=O)c1c(C)c2cnc(Nc3ccc(N4CCNCC4)cn3)nc2n(C2CCCC2)c1=O [Palbociclib] (partner 0.5 µM)
Procedure, shortened: (§1)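 Lung cancer cell lines in 1536-well plates got either a single drug or a fixed anchor-drug dose together with five library-drug doses (not always all listed) in √10 steps, by pin tool, on the day after seeding. Nuclei were counted after 5 days, and relative viability is the treated-to-vehicle ratio of nuclei counts. Values are medians of duplicate plates.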

BMX-IN-1 + Phenformin = compound: C=CC(=O)Nc1cc(-n2c(=O)ccc3cnc4ccc(-c5ccc(NS(C)(=O)=O)cc5)cc4c32)ccc1C [BMX-IN-1] + N=C(N)NC(=N)NCCc1ccccc1 [Phenformin] (partner 250 µM)
Procedure, shortened: as §1

Ibrutinib + OSI-027 = compound: C=CC(=O)N1CCC[C@@H](n2nc(-c3ccc(Oc4ccccc4)cc3)c3c(N)ncnc32)C1 [Ibrutinib] + COc1cccc2cc(-c3nc([C@H]4CC[C@H](C(=O)O)CC4)n4ncnc(N)c34)[nH]c12 [OSI-027] (partner 0.5 µM)
Procedure, shortened: as §1

BMX-IN-1 + Trametinib = compound: C=CC(=O)Nc1cc(-n2c(=O)ccc3cnc4ccc(-c5ccc(NS(C)(=O)=O)cc5)cc4c32)ccc1C [BMX-IN-1] + CC(=O)Nc1cccc(-n2c(=O)n(C3CC3)c(=O)c3c(Nc4ccc(I)cc4F)n(C)c(=O)c(C)c32)c1 [Trametinib] (partner 0.02 µM)
Procedure, shortened: as §1

| Cell Line | relative viability (Ibrutinib + Palbociclib; first compound 0.005 µM) | relative viability (Ibrutinib + Palbociclib; first compound 0.01581 µM) | relative viability (Ibrutinib + Palbociclib; first compound 0.05 µM) | relative viability (Ibrutinib + Palbociclib; first compound 0.1581 µM) | relative viability (Ibrutinib + Palbociclib; first compound 0.5 µM) | relative viability (BMX-IN-1 + Phenformin; first compound 0.02 µM) | relative viability (BMX-IN-1 + Phenformin; first compound 0.2 µM) | relative viability (BMX-IN-1 + Phenformin; first compound 0.6325 µM) | relative viability (BMX-IN-1 + Phenformin; first compound 2 µM) | relative viability (Ibrutinib + OSI-027; first compound 0.005 µM) | relative viability (Ibrutinib + OSI-027; first compound 0.01581 µM) | relative viability (Ibrutinib + OSI-027; first compound 0.05 µM) | relative viability (Ibrutinib + OSI-027; first compound 0.1581 µM) | relative viability (Ibrutinib + OSI-027; first compound 0.5 µM) | relative viability (BMX-IN-1 + Trametinib; first compound 0.02 µM) | relative viability (BMX-IN-1 + Trametinib; first compound 0.2 µM) | relative viability (BMX-IN-1 + Trametinib; first compound 0.6325 µM) | relative viability (BMX-IN-1 + Trametinib; first compound 2 µM) |
| --- | --- | --- | --- | --- | --- | --- | --- | --- | --- | --- | --- | --- | --- | --- | --- | --- | --- | --- |
| NCI-H1666 | 0.647 | 0.692 | 0.639 | 0.631 | 0.659 | 0.572 | 0.581 | 0.597 | 0.607 | 0.89 | 0.747 | 0.737 | 0.847 | 0.621 | 0.788 | 1.06 | 0.977 | 0.885 |
| NCI-H23 | 0.484 | 0.465 | 0.456 | 0.53 | 0.506 | 0.724 | 0.956 | 0.828 | 0.838 | 0.331 | 0.562 | 0.681 | 0.57 | 0.607 | 0.38 | 0.423 | 0.318 | 0.361 |
| COR-L23 | 0.285 | 0.304 | 0.282 | 0.353 | 0.332 | 0.499 | 0.553 | 0.46 | 0.48 | 0.644 | 0.731 | 0.762 | 0.875 | 0.882 | 0.71 | 0.695 | 0.623 | 0.662 |
| PC-14 | 0.527 | 0.495 | 0.576 | 0.575 | 0.172 | 0.575 | 0.535 | 0.809 | 0.583 | 0.71 | 0.689 | 0.641 | 0.907 | 0.554 | 0.814 | 1.01 | 0.927 | 0.793 |
| NCI-H2342 | 0.495 | 0.519 | 0.496 | 0.486 | 0.502 | 0.651 | 0.7 | 0.55 | 0.617 | 0.462 | 0.566 | 0.494 | 0.532 | 0.505 | 0.834 | 0.768 | 0.85 | 0.791 |
| LCLC-97TM1 | 0.222 | 0.226 | 0.284 | 0.241 | 0.161 | 0.383 | 0.455 | 0.503 | 0.471 | 0.586 | 0.425 | 0.558 | 0.487 | 0.483 | 0.213 | 0.27 | 0.204 | 0.176 |
| HOP-62 | 0.542 | 0.442 | 0.42 | 0.459 | 0.516 | 0.567 | 0.869 | 0.752 | 0.772 | 0.689 | 0.733 | 0.832 | 0.982 | 0.924 | 0.44 | 0.379 | 0.366 | 0.341 |
| NCI-H727 | 0.593 | 0.593 | 0.644 | 0.644 | 0.505 | 0.532 | 0.546 | 0.584 | 0.392 | 0.506 | 0.591 | 0.674 | – | 0.577 | 0.419 | 0.429 | 0.387 | 0.4 |
| NCI-H1734 | 0.374 | 0.332 | 0.384 | 0.346 | 0.357 | 0.341 | 0.431 | 0.461 | 0.415 | 0.448 | 0.528 | 0.611 | 0.665 | 0.564 | 0.732 | 0.751 | 0.735 | 0.7 |
| NCI-H1651 | 0.529 | 0.5 | 0.533 | 0.489 | 0.51 | 0.292 | 0.451 | 0.394 | 0.363 | 0.624 | 0.663 | 0.792 | 0.685 | 0.768 | 0.866 | 0.908 | 0.879 | 0.893 |
| NCI-H2170 | 0.329 | 0.296 | 0.259 | 0.385 | 0.139 | 0.375 | 0.4 | 0.415 | 0.416 | 0.48 | 0.587 | 0.459 | 0.822 | 0.272 | 0.951 | 1.02 | 1.09 | 0.906 |
| NCI-H1650 | 0.382 | 0.305 | 0.314 | 0.436 | 0.243 | 0.493 | 0.44 | 0.446 | 0.413 | 0.554 | 0.506 | 0.452 | 0.59 | 0.482 | 0.576 | 0.539 | 0.682 | 0.611 |
| LK-2 | 0.469 | 0.662 | 0.586 | 0.542 | 0.579 | 0.487 | 0.505 | 0.473 | 0.548 | 0.151 | 0.203 | 0.203 | 0.174 | 0.212 | 0.943 | 1.02 | 0.793 | 0.847 |
| NCI-H522 | 0.865 | 1.05 | 0.861 | 1.01 | 0.664 | 0.77 | 0.64 | 0.669 | 0.635 | 0.656 | 0.693 | 0.692 | 0.597 | 0.648 | 0.687 | 0.805 | 0.728 | 0.744 |
| NCI-H2009 | 0.136 | 0.214 | 0.183 | 0.169 | 0.288 | 0.47 | 0.549 | 0.531 | 0.485 | 0.522 | 0.631 | 0.585 | 0.729 | 0.804 | 0.254 | 0.251 | 0.239 | 0.29 |
| NCI-H2347 | 0.391 | 0.386 | 0.478 | 0.492 | 0.428 | 0.314 | 0.368 | 0.38 | 0.357 | – | 0.383 | 0.374 | 0.302 | 0.57 | 0.295 | 0.291 | 0.322 | 0.292 |
| NCI-H460 | 0.167 | 0.19 | 0.197 | 0.149 | 0.202 | 0.917 | 0.576 | 0.677 | 0.609 | 0.731 | 0.53 | 0.626 | 0.566 | 0.823 | 0.131 | 0.136 | 0.236 | 0.181 |
| LC-2-ad | 0.588 | 0.513 | 0.505 | 0.542 | 0.505 | 0.553 | 0.555 | 0.722 | 0.617 | 0.741 | 0.746 | 0.797 | 0.792 | 0.752 | 1.02 | 0.945 | 0.929 | 0.94 |
